{
  "source": "patent US6462226B1",
  "about": "“Process for the preparation of 4,5-diamino shikimic acid derivatives” (priority 1999, dated 2002)",
  "origin": "cited, not measured here",
  "tested_on": "viral neuraminidase",
  "conditions": "J. C. Rohloff et al., J.Org.Chem. 63, 1998, 4545-4550; WO 98/07685",
  "data": [
    {"smiles": "CCOC(=O)C1=C[C@@H](OC(CC)CC)[C@H](NC(C)=O)[C@@H](N)C1", "note": "[Example 1, Ethyl (3R, 4R, 5S)-4-acetamido-5-amino-3-(1-ethylpropoxy)-1-cyclohexene-1-carboxylate]", "values": [
      {"measurement": "inhibition of viral neuraminidase", "value": "potent inhibitors"}
    ]}
  ]
}
